Values joined by “and” are separate entries in the source; they are usually repeats but may differ in a detail not shown here. Identical values can stand only once. Toxic doses and inconclusive results are not listed.
System: P388 leukemia ip, CD2F1 mice, survival T/C
Assay: NCI In Vivo Anticancer Drug Screen. Data for tumor model P388 Leukemia (intraperitoneal) in CD2F1 (CDF1) mice
Settings: endpoint: median survival time, higher = longer survival
In short: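 Mice carrying the transplanted tumor received test compound or vehicle. Survival was recorded in each group, and the value is the treated-group measurement divided by that of the vehicle-treated control group.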

[1] = dose: 50.0 mg/kg/injection, schedule: Q01DX009 (ip), vehicle: saline with Tween-80
[2] = dose: 100.0 mg/kg/injection, schedule: Q01DX009 (ip), vehicle: saline with Tween-80
[3] = dose: 12.5 mg/kg/injection, schedule: Q01DX009 (ip), vehicle: water
[4] = dose: 100.0 mg/kg/injection, schedule: Q01DX009 (ip), vehicle: Klucel (hydroxypropylcellulose) (HPC)
[5] = dose: 200.0 mg/kg/injection, schedule: Q01DX009 (ip), vehicle: Klucel (hydroxypropylcellulose) (HPC)
[6] = dose: 100.0 mg/kg/injection, schedule: Q01DX001 (ip), vehicle: saline with Tween-80
[7] = dose: 60.0 mg/kg/injection, schedule: Q01DX005 (ip), vehicle: saline with Tween-80
[8] = dose: 120.0 mg/kg/injection, schedule: Q01DX005 (ip), vehicle: saline with Tween-80
[9] = dose: 240.0 mg/kg/injection, schedule: Q01DX005 (ip), vehicle: saline with Tween-80
[10] = dose: 200.0 mg/kg/injection, schedule: Q01DX001 (ip), vehicle: saline with Tween-80
[11] = dose: 400.0 mg/kg/injection, schedule: Q01DX001 (ip), vehicle: saline with Tween-80
[12] = dose: 50.0 mg/kg/injection, schedule: Q01DX005 (ip), vehicle: Klucel (hydroxypropylcellulose) (HPC)
[13] = dose: 100.0 mg/kg/injection, schedule: Q01DX005 (ip), vehicle: Klucel (hydroxypropylcellulose) (HPC)
[14] = dose: 200.0 mg/kg/injection, schedule: Q01DX005 (ip), vehicle: Klucel (hydroxypropylcellulose) (HPC)
[15] = dose: 50.0 mg/kg/injection, schedule: Q01DX005 (ip), vehicle: saline with Tween-80
[16] = dose: 100.0 mg/kg/injection, schedule: Q01DX005 (ip), vehicle: saline with Tween-80
[17] = dose: 200.0 mg/kg/injection, schedule: Q01DX005 (ip), vehicle: saline with Tween-80

CN1C(=O)C(=Cc2ccc(O)cc2)C(=O)N(C)C1=O
T/C [1]: 112 % of control and 113 % of control | T/C [2]: 118 % of control and 123 % of control | T/C (dose: 400.0 mg/kg/injection, schedule: Q01DX009 (ip), vehicle: saline with Tween-80): 86 % of control

C=C(C)C1Oc2ccc(C(C)=O)cc2C1O (stereo not given)
T/C (dose: 8.8 mg/kg/injection, schedule: Q01DX009 (ip), vehicle: saline): 103 % of control | T/C (dose: 17.5 mg/kg/injection, schedule: Q01DX009 (ip), vehicle: saline): 89 % of control | T/C (dose: 35.0 mg/kg/injection, schedule: Q01DX009 (ip), vehicle: saline): 100 % of control

Nc1ncnc2c1ncn2C1C=C(CO)C(O)C1O (stereo not given)
T/C (dose: 1.0 mg/kg/injection, schedule: Q01DX009 (ip), vehicle: saline): 163 % of control | T/C (dose: 2.0 mg/kg/injection, schedule: Q01DX009 (ip), vehicle: saline): 163 % of control | T/C (dose: 4.0 mg/kg/injection, schedule: Q01DX009 (ip), vehicle: Klucel (hydroxypropylcellulose) (HPC)): 161 % of control | T/C (dose: 4.0 mg/kg/injection, schedule: Q01DX009 (ip), vehicle: saline): 156 % of control | T/C (dose: 8.0 mg/kg/injection, schedule: Q01DX009 (ip), vehicle: Klucel (hydroxypropylcellulose) (HPC)): 153 % of control and 161 % of control | T/C (dose: 8.0 mg/kg/injection, schedule: Q01DX009 (ip), vehicle: saline): 152 % of control and 182 % of control

O=C(O)c1ccccc1C(=O)O
T/C [3]: 102 % of control | T/C (dose: 25.0 mg/kg/injection, schedule: Q01DX009 (ip), vehicle: water): 102 % of control | T/C (dose: 50.0 mg/kg/injection, schedule: Q01DX009 (ip), vehicle: water): 98 % of control | T/C (dose: 100.0 mg/kg/injection, schedule: Q01DX009 (ip), vehicle: water): 92 % of control | T/C (dose: 200.0 mg/kg/injection, schedule: Q01DX009 (ip), vehicle: water): 88 % of control

CCOC(=O)CCCC(=O)Cl
T/C [1]: 94 % of control | T/C [2]: 99 % of control | T/C (dose: 200.0 mg/kg/injection, schedule: Q01DX009 (ip), vehicle: saline with Tween-80): 96 % of control

O=C1OC(c2ccccc2)Sc2ccccc21 (stereo not given)
T/C [4]: 99 % of control | T/C [5]: 95 % of control | T/C (dose: 400.0 mg/kg/injection, schedule: Q01DX009 (ip), vehicle: Klucel (hydroxypropylcellulose) (HPC)): 92 % of control

COc1ccc2[nH]c3c(C)c4cc[n+](CCCCCCCC[n+]5ccc6c(C)c7[nH]c8ccc(OC)cc8c7c(C)c6c5)cc4c(C)c3c2c1
T/C (dose: 0.78 mg/kg/injection, schedule: Q04DX003 (ip), vehicle: other): 117 % of control | T/C (dose: 25.0 mg/kg/injection, schedule: Q04DX003 (ip), vehicle: other): 122 % of control | T/C (dose: 50.0 mg/kg/injection, schedule: Q04DX003 (ip), vehicle: other): 119 % of control

COc1ccc2c(c1)CCc1c(-c3noc4c3CCc3cc(OC)ccc3-4)noc1-2
T/C (dose: 60.0 mg/kg/injection, schedule: Q01DX005 (ip), vehicle: Klucel + Tween-80): 92 % of control | T/C (dose: 120.0 mg/kg/injection, schedule: Q01DX005 (ip), vehicle: Klucel + Tween-80): 96 % of control | T/C (dose: 240.0 mg/kg/injection, schedule: Q01DX005 (ip), vehicle: Klucel + Tween-80): 100 % of control

Nc1nc(SCC(=O)O)[nH]c(=O)c1NS(=O)(=O)c1ccccc1
T/C (dose: 60.0 mg/kg/injection, schedule: Q01DX005 (ip), vehicle: Klucel (hydroxypropylcellulose) (HPC)): 108 % of control | T/C (dose: 120.0 mg/kg/injection, schedule: Q01DX005 (ip), vehicle: Klucel (hydroxypropylcellulose) (HPC)): 109 % of control

COc1cccc2c1C(=O)c1c(O)c3c(c(O)c1C2=O)CC(O)(/C(C)=N/NC(=O)CCCCC(=O)N/N=C(\C)C1(O)Cc2c(O)c4c(c(O)c2C(OC2CC(N)C(O)C(C)O2)C1)C(=O)c1c(OC)cccc1C4=O)CC3OC1CC(N)C(O)C(C)O1 (stereo not given)
T/C (dose: 0.2 mg/kg/injection, schedule: Q01DX009 (ip), vehicle: water): 118 % of control | T/C (dose: 0.78 mg/kg/injection, schedule: Q01DX009 (ip), vehicle: water): 154 % of control | T/C (dose: 1.56 mg/kg/injection, schedule: Q01DX009 (ip), vehicle: water): 157 % of control and 172 % of control | T/C (dose: 3.13 mg/kg/injection, schedule: Q01DX009 (ip), vehicle: water): 186 % of control and 189 % of control | T/C (dose: 6.25 mg/kg/injection, schedule: Q01DX009 (ip), vehicle: water): 281 % of control and 289 % of control | T/C [3]: 100 % of control and 102 % of control

NC(N)=NC(N)=Nc1cc2c3ccccc3ccc2c2ccccc12
T/C (dose: 25.0 mg/kg/injection, schedule: Q01DX001 (ip), vehicle: saline with Tween-80): 100 % of control | T/C (dose: 50.0 mg/kg/injection, schedule: Q01DX001 (ip), vehicle: saline with Tween-80): 98 % of control | T/C [6]: 92 % of control

S=C(/N=N/c1[nH]c2ccccc2c1NNC(=S)NC12CC3CC(CC(C3)C1)C2)NC12CC3CC(CC(C3)C1)C2
T/C (dose: 30.0 mg/kg/injection, schedule: Q01DX005 (ip), vehicle: saline with Tween-80): 96 % of control | T/C [7]: 96 % of control | T/C [8]: 87 % of control | T/C [9]: 90 % of control

O=C(NC(=S)c1ccc(Br)cc1)NS(=O)(=O)c1ccccc1
T/C [6]: 107 % of control | T/C [10]: 102 % of control | T/C [11]: 102 % of control

O=C1CCCN1
T/C (dose: 100.0 mg/kg/injection, schedule: Q04DX003 (ip), vehicle: saline): 100 % of control | T/C (dose: 200.0 mg/kg/injection, schedule: Q04DX003 (ip), vehicle: saline): 100 % of control | T/C (dose: 400.0 mg/kg/injection, schedule: Q04DX003 (ip), vehicle: saline): 109 % of control

CN1CCN(c2ccncc2S(=O)(=O)N2CCOCC2)CC1
T/C (dose: 50.0 mg/kg/injection, schedule: Q01DX009 (ip), vehicle: saline): 97 % of control | T/C (dose: 100.0 mg/kg/injection, schedule: Q01DX009 (ip), vehicle: saline): 95 % of control

Cc1ccc(/C=C/C(=O)C(C)(C)CN(C)CCN(C)C)cc1
T/C (dose: 60.0 mg/kg/injection, schedule: Q01DX005 (ip), vehicle: saline): 103 % of control | T/C (dose: 120.0 mg/kg/injection, schedule: Q01DX005 (ip), vehicle: saline): 98 % of control

CNC(=O)OCCC(OC(=O)NC)C1CCC2C3CC=C4CC(O)CCC4(C)C3CCC12C (stereo not given)
T/C [12]: 100 % of control | T/C [13]: 102 % of control | T/C [14]: 97 % of control

COC(=O)c1nn2c(=O)n(C(C)=O)c3ccccc3c2c1C(=O)OC
T/C [7]: 108 % of control | T/C [8]: 109 % of control | T/C [9]: 108 % of control

O=c1[nH]c(=O)c2[nH]c(Br)nc2[nH]1
T/C [12]: 102 % of control | T/C [13]: 100 % of control | T/C [14]: 100 % of control

O=C(O)COC1CC(=O)N2c3ccccc3C34CCN5C(=O)C(=O)C(CC53)C1C24 (stereo not given)
T/C [7]: 96 % of control | T/C [8]: 95 % of control | T/C [9]: 88 % of control

CC(NNC(=S)N1CCCC1)c1ccc2ccccc2n1 (stereo not given)
T/C [15]: 94 % of control | T/C [16]: 94 % of control | T/C [17]: 94 % of control

O=C(Nc1cccc(Cl)c1)OCCN1CCNC1=S
T/C (dose: 50.0 mg/kg/injection, schedule: Q01DX009 (ip), vehicle: Klucel (hydroxypropylcellulose) (HPC)): 116 % of control | T/C [4]: 106 % of control | T/C [5]: 105 % of control

Nc1nnc(SCCCCCCSc2nnc(N)s2)s1
T/C [15]: 86 % of control | T/C [16]: 86 % of control

C=C1C(=O)OC2/C=C(/C)C3CC(O)C(C)(CC(OC(=O)/C(C)=C/C)C12)O3 (stereo not given)
T/C (dose: 10.0 mg/kg/injection, schedule: Q01DX009 (ip), vehicle: saline with Tween-80): 96 % of control and 105 % of control | T/C (dose: 20.0 mg/kg/injection, schedule: Q01DX009 (ip), vehicle: saline with Tween-80): 96 % of control and 107 % of control | T/C (dose: 40.0 mg/kg/injection, schedule: Q01DX009 (ip), vehicle: saline with Tween-80): 109 % of control and 119 % of control | T/C (dose: 80.0 mg/kg/injection, schedule: Q01DX009 (ip), vehicle: saline with Tween-80): 123 % of control and 117 % of control

Cc1ccc(S(=O)(=O)NC(=O)c2cnc(N(C)C)s2)cc1
T/C [12]: 104 % of control | T/C [13]: 101 % of control | T/C [14]: 107 % of control

Cc1ccc(NC(=O)CCC(=O)C(C)C(=O)c2ccccc2)c(C)c1 (stereo not given)
T/C [15]: 99 % of control | T/C [16]: 97 % of control | T/C [17]: 97 % of control

CC(C)N(C(=O)SCC(Cl)=C(Cl)Cl)C(C)C
T/C [7]: 100 % of control | T/C [8]: 103 % of control | T/C [9]: 102 % of control

CSc1n[nH]c(N)c1C(N)=O
T/C [6]: 107 % of control | T/C [10]: 100 % of control | T/C [11]: 111 % of control
